The source made the active and inactive calls. The rule behind the calls is not given here.
Experiments:
Rattus norvegicus [1] = test: Induction of growth hormone level in Juvenile Sprague-Dawley rat blood at 0.2 mg/kg, po administered as single dose measured after 20 mins by ELISA method (reference value: 29.1+/-8.6 ng/mL); assay type: functional
[2] = Metabolic stability in human liver microsome assessed as hepatic clearance at 1 uM measured upto 60 mins in presence of NADPH by LC-MS/MS analysis; assay type: ADME; conditions: liver microsomes, read-out: CLH
Rattus norvegicus [3] = test: Induction of growth hormone level in adult Sprague-Dawley rat blood at 0.1 mg/kg, po administered as single dose measured after 10 mins by ELISA method (reference value: 13.7+/-7.2 ng/mL); assay type: functional
[4] = Oral bioavailability in male monkey at 2 mg/kg administered as single dose measured after 4 hrs; assay type: ADME, organism-based, Macaca mulatta; conditions: rhesus monkey, in vivo
Cytochrome P450 2C9 = Cytochrome P450 2C9 (Homo sapiens, UniProt P11712); test: Inhibition of CYP2C9 in human liver microsome incubated for 5 min in presence of NADPH by UPLC-MS/MS analysis; assay type: ADME, microsomes
Rattus norvegicus [5] = test: Induction of growth hormone level in 6 week-old female Sprague-Dawley rat assessed as increase in body weight at 2.5 mg/kg, po measured after 10 days; assay type: functional, organism-based; conditions: time 10.0 day
Rattus norvegicus [6] = test: Induction of growth hormone level in adult Sprague-Dawley rat blood at 0.5 mg/kg, po administered as single dose measured after 40 mins by ELISA method (reference value: 14.4+/-6.9 ng/mL); assay type: functional
Rattus norvegicus [7] = test: Induction of growth hormone level in adult Sprague-Dawley rat blood at 0.1 mg/kg, po administered as single dose measured after 40 mins by ELISA method (reference value: 14.4+/-6.9 ng/mL); assay type: functional
[8] = Toxicity in Sprague-Dawley rat assessed as change in hepatic structure by measuring hepatic lobules at 10 to 100 mg/kg, po administered once daily for 14 days; assay type: organism-based; conditions: in vivo, 336 h, dose 10-100 mg/kg, time 14 day
[9] = Cmax in male Sprague-Dawley rat at 2 mg/kg, po administered as single dose measured after 4 hrs; assay type: ADME, organism-based; conditions: in vivo
[10] = Metabolic stability in mouse liver microsome assessed as intrinsic clearance at 1 uM measured upto 60 mins in presence of NADPH by LC-MS/MS analysis; assay type: ADME; conditions: liver microsomes, read-out: CLH
Rattus norvegicus [11] = test: Induction of growth hormone level in Juvenile Sprague-Dawley rat blood at 0.1 mg/kg, po administered as single dose measured immediately by ELISA method (reference value: 28.5+/-8.7 ng/mL); assay type: functional
[12] = Tmax in male monkey at 2 mg/kg, po administered as single dose measured after 4 hrs; assay type: ADME, organism-based, Macaca mulatta; conditions: rhesus monkey, in vivo
[13] = Elimination half life in male Sprague-Dawley rat at 2 mg/kg, po administered as single dose measured after 4 hrs; assay type: ADME, organism-based; conditions: in vivo, read-out: beta t1/2 (converted)
[14] = AUC in male mouse at 2 mg/kg, po administered as single dose measured after 4 hrs; assay type: ADME, organism-based; conditions: in vivo
Rattus norvegicus [15] = test: Induction of growth hormone level in Juvenile Sprague-Dawley rat blood at 0.1 mg/kg, po administered as single dose measured after 2 hrs by ELISA method (reference value: 26.5+/-7.3 ng/mL); assay type: functional
[16] = Metabolic stability in rat liver microsome assessed as half life at 1 uM measured upto 60 mins in presence of NADPH by LC-MS/MS analysis; assay type: ADME; conditions: liver microsomes
[17] = Metabolic stability in dog liver microsome assessed as intrinsic clearance at 1 uM measured upto 60 mins in presence of NADPH by LC-MS/MS analysis; assay type: ADME, Canis lupus familiaris; conditions: liver microsomes, read-out: CLH
Rattus norvegicus [18] = test: Induction of growth hormone level in adult Sprague-Dawley rat blood at 0.5 mg/kg, po administered as single dose measured immediately by ELISA method (reference value: 12.6+/-4.4 ng/mL); assay type: functional
[19] = Tmax in male dog at 2 mg/kg, po administered as single dose measured after 4 hrs; assay type: ADME, organism-based, Canis lupus familiaris; conditions: in vivo
Cytochrome P450 2C19 = Cytochrome P450 2C19 (Homo sapiens, UniProt P33261); test: Inhibition of CYP2C19 in human liver microsome incubated for 5 min in presence of NADPH by UPLC-MS/MS analysis; assay type: ADME, microsomes
Rattus norvegicus [20] = test: Induction of growth hormone level in adult Sprague-Dawley rat blood at 0.2 mg/kg, po administered as single dose measured after 10 mins by ELISA method (reference value: 13.7+/-7.2 ng/mL); assay type: functional
[21] = AUC in male Sprague-Dawley rat at 2 mg/kg, po administered as single dose measured after 4 hrs; assay type: ADME, organism-based; conditions: in vivo
Rattus norvegicus [22] = test: Induction of growth hormone level in adult Sprague-Dawley rat blood at 0.1 mg/kg, po administered as single dose measured immediately by ELISA method (reference value: 12.6+/-4.4 ng/mL); assay type: functional
[23] = Genotoxicity in Salmonella typhimurium TA98 by Ames test; assay type: toxicity; conditions: salmonella enterica subsp. enterica serovar typhimurium
[24] = Toxicity in Sprague-Dawley rat assessed as effect on lymphocyte containing white pulp around central arteriole at 10 to 100 mg/kg, po administered once daily for 14 days by H&E staining based analysis; assay type: organism-based; conditions: in vivo, 336 h, dose 10-100 mg/kg, time 14 day
[25] = Plasma protein binding in dog assessed as unbound fraction measured after 6 hrs by dialysis method; assay type: ADME, cell-free, Canis lupus familiaris
Rattus norvegicus [26] = test: In vivo agonist activity at GSHR in Sprague-Dawley rat assessed as increase in food consumption at 10 to 100 mg/kg, po administered once daily for 14 days; assay type: functional, organism-based; conditions: dose 10-100 mg/kg, time 14.0 day
[27] = Genotoxicity in Salmonella typhimurium TA1537 by Ames test; assay type: toxicity; conditions: salmonella enterica subsp. enterica serovar typhimurium
[28] = Plasma protein binding in human assessed as unbound fraction measured after 6 hrs by dialysis method; assay type: ADME, cell-free
Rattus norvegicus [29] = test: Induction of growth hormone level in Juvenile Sprague-Dawley rat blood at 0.5 mg/kg, po administered as single dose measured after 40 mins by ELISA method (reference value: 40.1+/-11.0 ng/mL); assay type: functional
[30] = Metabolic stability in dog liver microsome assessed as hepatic clearance at 1 uM measured upto 60 mins in presence of NADPH by LC-MS/MS analysis; assay type: ADME, Canis lupus familiaris; conditions: liver microsomes, read-out: CLH
Rattus norvegicus [31] = test: Induction of growth hormone level in Juvenile Sprague-Dawley rat blood at 0.2 mg/kg, po administered as single dose measured after 40 mins by ELISA method (reference value: 40.1+/-11.0 ng/mL); assay type: functional

Chain of Cytochrome P450 2C19 (P33261 whole entry): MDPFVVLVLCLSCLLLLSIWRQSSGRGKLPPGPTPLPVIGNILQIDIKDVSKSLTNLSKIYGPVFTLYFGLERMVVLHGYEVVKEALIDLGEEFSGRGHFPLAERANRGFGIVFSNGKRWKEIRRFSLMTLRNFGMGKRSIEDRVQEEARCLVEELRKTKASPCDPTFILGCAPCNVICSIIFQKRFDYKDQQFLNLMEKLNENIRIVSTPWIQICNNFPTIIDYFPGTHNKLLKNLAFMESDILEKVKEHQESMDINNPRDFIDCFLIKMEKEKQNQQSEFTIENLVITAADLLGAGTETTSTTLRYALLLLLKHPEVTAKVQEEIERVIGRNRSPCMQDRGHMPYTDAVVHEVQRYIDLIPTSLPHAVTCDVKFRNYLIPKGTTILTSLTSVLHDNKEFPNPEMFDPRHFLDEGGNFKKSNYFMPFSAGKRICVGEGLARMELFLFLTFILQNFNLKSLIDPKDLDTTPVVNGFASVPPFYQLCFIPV
Chain of Cytochrome P450 2C9 (P11712 whole entry): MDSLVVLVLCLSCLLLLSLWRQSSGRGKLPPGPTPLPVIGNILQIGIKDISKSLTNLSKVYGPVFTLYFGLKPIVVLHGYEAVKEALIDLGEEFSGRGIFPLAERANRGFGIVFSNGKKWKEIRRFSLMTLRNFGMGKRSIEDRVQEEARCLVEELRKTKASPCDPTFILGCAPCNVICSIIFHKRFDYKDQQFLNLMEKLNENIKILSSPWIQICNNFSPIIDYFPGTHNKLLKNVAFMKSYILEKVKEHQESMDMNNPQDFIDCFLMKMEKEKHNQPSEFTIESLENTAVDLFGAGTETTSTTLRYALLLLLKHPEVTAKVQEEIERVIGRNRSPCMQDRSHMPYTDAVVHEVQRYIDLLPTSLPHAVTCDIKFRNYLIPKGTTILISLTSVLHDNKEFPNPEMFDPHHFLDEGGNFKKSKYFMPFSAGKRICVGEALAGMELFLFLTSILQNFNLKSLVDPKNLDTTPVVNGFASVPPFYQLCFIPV

CLint scaled at 1 µM [2]: 127 mL/min/kg
F [4]: 15.88%
IC50 (Cytochrome P450 2C9): > 30 µM
Cmax [9]: 156 ng/mL
microsomal CLint at 1 µM [10]: 330 µL/min/mg
Tmax [12]: 79.8 min
half-life [13]: 166 min
AUC at 4 h [14]: 93.1 ng·h/mL
half-life at 1 µM [16]: 9.9 min
microsomal CLint at 1 µM [17]: 134 µL/min/mg
Tmax [19]: 25.2 min
IC50 (Cytochrome P450 2C19): > 30 µM
AUC at 4 h [21]: 188 ng·h/mL
fraction unbound at 6 h [25]: 0.563
fraction unbound at 6 h [28]: 0.695
CLint scaled at 1 µM [30]: 237 mL/min/kg
Compound: CC(C)(N)C(=O)N[C@H](COCc1ccccc1)C(=O)N1CCC2=NN(C3CC3)C(=O)[C@]2(Cc2ccccc2)C1
Activity (Rattus norvegicus [1]): 217.8 ng/mL
Activity (Rattus norvegicus [3]): 216.1 ng/mL
Activity (Rattus norvegicus [5]): Active
Activity (Rattus norvegicus [6]): 27.8 ng/mL
Activity (Rattus norvegicus [7]): 27.6 ng/mL
Activity [8]: Non-toxic
Activity (Rattus norvegicus [11]): 31.1 ng/mL
Activity (Rattus norvegicus [15]): 36.7 ng/mL
Activity (Rattus norvegicus [18]): 14 ng/mL
Activity (Rattus norvegicus [20]): 228.6 ng/mL
Activity (Rattus norvegicus [22]): 21.2 ng/mL
Activity [23]: Non-toxic
Activity [24]: Non-toxic
Activity (Rattus norvegicus [26]): Active
Activity [27]: Non-toxic
Activity (Rattus norvegicus [29]): 74.6 ng/mL
Activity (Rattus norvegicus [31]): 66.5 ng/mL

Source: ChEMBL document CHEMBL6103654, “Design, Biological Characterization, and Discovery of Capromorelin Derivatives as Oral Growth Hormone Secretagogue Receptor Type 1a Agonist for the Treatment of Growth Hormone Deficiency” (J Med Chem, 2025)
